± gives the standard deviation of the averaged measurements.
Experiments:
METHOTREXATE = compound: CN(Cc1cnc2nc(N)nc(N)c2n1)c1ccc(C(=O)N[C@@H](CCC(=O)O)C(=O)O)cc1 [METHOTREXATE]; experiment: surviving fraction relative to DMSO-only wells; higher = less growth inhibition; conditions: exposure time: 5 days
Procedure, shortened: (§1)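 Viability was determined by CellTiter-Glo luminescence, expressed as surviving fraction normalised to the median of DMSO-only wells. The cells were log-phase tumour cell lines seeded at 250–500 per well in 384-well plates and, after 24 hours, exposed continuously for five days to inhibitors at 0.5, 1, 5, 10, 50, 100, 500 and 1000 nM. Three screens per line were run, keeping only lines with replicate Pearson r >0.7 and median Z' >0.3.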

MK2206 = compound: NC1(c2ccc(-c3nc4ccn5c(=O)[nH]nc5c4cc3-c3ccccc3)cc2)CCC1 [MK2206]; experiment: as above; conditions: exposure time: 5 days
Procedure, shortened: as §1

Test System | surviving fraction (METHOTREXATE; 0.5 nM) | surviving fraction (METHOTREXATE; 1 nM) | surviving fraction (METHOTREXATE; 5 nM) | surviving fraction (METHOTREXATE; 10 nM) | surviving fraction (METHOTREXATE; 50 nM) | surviving fraction (METHOTREXATE; 100 nM) | surviving fraction (METHOTREXATE; 500 nM) | surviving fraction (METHOTREXATE; 1000 nM) | surviving fraction (MK2206; 0.5 nM) | surviving fraction (MK2206; 1 nM) | surviving fraction (MK2206; 5 nM) | surviving fraction (MK2206; 10 nM) | surviving fraction (MK2206; 50 nM) | surviving fraction (MK2206; 100 nM) | surviving fraction (MK2206; 500 nM) | surviving fraction (MK2206; 1000 nM)
SG43 HEADNECK | 0.924 ± 0.046 | 1.01 ± 0.21 | 0.917 ± 0.18 | 0.915 ± 0.16 | 0.881 ± 0.092 | 0.678 ± 0.091 | 0.909 ± 0.15 | 0.84 ± 0.055 | 1.19 ± 0.62 | 0.92 ± 0.097 | 0.894 ± 0.2 | 0.741 ± 0.14 | 0.653 ± 0.19 | 0.505 ± 0.073 | 0.465 ± 0.17 | 0.317 ± 0.089
SIHA CERVIX | 1.05 ± 0.02 | 1.14 ± 0.048 | 1.07 ± 0.085 | 1.1 ± 0.017 | 0.8 ± 0.014 | 0.835 ± 0.034 | 0.787 ± 0.018 | 0.782 ± 0.014 | 0.989 ± 0.041 | 1 ± 0.043 | 1.02 ± 0.092 | 1.04 ± 0.062 | 0.8803 ± 0.0068 | 0.876 ± 0.031 | 0.731 ± 0.013 | 0.719 ± 0.021
SJSA1 BONE | 1.62 ± 0.029 | 1.63 ± 0.05 | 1.61 ± 0.075 | 1.67 ± 0.14 | 1.7 ± 0.065 | 1.79 ± 0.12 | 1.64 ± 0.1 | 1.88 ± 0.062 | 0.752 ± 0.027 | 0.825 ± 0.033 | 0.907 ± 0.028 | 0.804 ± 0.032 | 1.66 ± 0.096 | 1.7 ± 0.048 | 1.66 ± 0.13 | 1.71 ± 0.15
SKBR3 BREAST | 1.02 ± 0.024 | 1.11 ± 0.027 | 1.11 ± 0.1 | 1.04 ± 0.12 | 0.784 ± 0.13 | 0.629 ± 0.038 | 0.503 ± 0.1 | 0.512 ± 0.13 | 0.983 ± 0.076 | 1.01 ± 0.16 | 0.942 ± 0.085 | 0.911 ± 0.032 | 0.724 ± 0.067 | 0.581 ± 0.028 | 0.368 ± 0.02 | 0.337 ± 0.015
SNU475 LIVER | 1.04 ± 0.056 | 1.05 ± 0.05 | 1.05 ± 0.018 | 0.924 ± 0.01 | 0.822 ± 0.13 | 0.854 ± 0.072 | 0.875 ± 0.047 | 0.843 ± 0.11 | 0.973 ± 0.037 | 1.04 ± 0.053 | 1.01 ± 0.027 | 0.983 ± 0.043 | 0.9 ± 0.024 | 0.891 ± 0.018 | 0.767 ± 0.03 | 0.653 ± 0.1
SUM44 BREAST | 1.31 ± 0.48 | 1.29 ± 0.48 | 1.23 ± 0.36 | 1.23 ± 0.39 | 1.33 ± 0.5 | 1.17 ± 0.38 | 0.819 ± 0.25 | 0.802 ± 0.29 | 1.09 ± 0.17 | 1.19 ± 0.28 | 1.14 ± 0.24 | 1.22 ± 0.31 | 0.993 ± 0.051 | 1.13 ± 0.21 | 1.02 ± 0.18 | 1.09 ± 0.34
SUM149 BREAST | 1.05 ± 0.075 | 1.13 ± 0.12 | 1.1 ± 0.087 | 1.06 ± 0.036 | 0.848 ± 0.074 | 0.751 ± 0.057 | 0.746 ± 0.027 | 0.781 ± 0.058 | 1.04 ± 0.049 | 1.05 ± 0.038 | 1.02 ± 0.058 | 0.997 ± 0.098 | 0.937 ± 0.036 | 0.953 ± 0.029 | 0.932 ± 0.082 | 0.872 ± 0.055
SUM149.B1*.S BREAST | 1.09 ± 0.065 | 1.12 ± 0.042 | 1.06 ± 0.036 | 1.09 ± 0.041 | 0.854 ± 0.035 | 0.767 ± 0.052 | 0.716 ± 0.046 | 0.733 ± 0.0095 | 1.08 ± 0.057 | 1.14 ± 0.093 | 1.12 ± 0.034 | 1.09 ± 0.076 | 1.05 ± 0.058 | 1.07 ± 0.045 | 0.998 ± 0.056 | 1.06 ± 0.036
SUM159 BREAST | 1.1 ± 0.027 | 1.09 ± 0.036 | 1.1 ± 0.049 | 1.09 ± 0.029 | 1.03 ± 0.038 | 0.951 ± 0.018 | 0.884 ± 0.013 | 0.897 ± 0.02 | 1.08 ± 0.04 | 1.093 ± 0.0081 | 1.07 ± 0.024 | 1.11 ± 0.03 | 1.06 ± 0.015 | 1.08 ± 0.02 | 1.09 ± 0.029 | 1.08 ± 0.018
SYO1 SYNOVIAL | 0.991 ± 0.03 | 0.983 ± 0.047 | 0.984 ± 0.041 | 0.991 ± 0.074 | 0.419 ± 0.024 | 0.285 ± 0.0055 | 0.284 ± 0.02 | 0.281 ± 0.011 | 0.95 ± 0.012 | 0.975 ± 0.05 | 0.953 ± 0.022 | 1 ± 0.028 | 0.905 ± 0.032 | 0.885 ± 0.066 | 0.748 ± 0.051 | 0.702 ± 0.036
T47D BREAST | 1.12 ± 0.013 | 1.12 ± 0.073 | 1.07 ± 0.025 | 0.9393 ± 0.0076 | 0.562 ± 0.033 | 0.406 ± 0.065 | 0.33 ± 0.025 | 0.339 ± 0.024 | 1.04 ± 0.03 | 1.06 ± 0.064 | 1 ± 0.036 | 0.945 ± 0.027 | 0.755 ± 0.032 | 0.654 ± 0.042 | 0.482 ± 0.021 | 0.449 ± 0.027
U2OS BONE | 1 ± 0.045 | 1.02 ± 0.039 | 1.04 ± 0.051 | 0.31 ± 0.0076 | 0.672 ± 0.01 | 0.669 ± 0.014 | 0.636 ± 0.016 | 0.625 ± 0.026 | 0.992 ± 0.017 | 1.03 ± 0.051 | 1.03 ± 0.027 | 1.05 ± 0.026 | 0.991 ± 0.015 | 0.941 ± 0.035 | 0.815 ± 0.0053 | 0.731 ± 0.055
VCAP PROSTATE | 0.961 ± 0.06 | 0.984 ± 0.036 | 1.02 ± 0.094 | 1.07 ± 0.11 | 1.03 ± 0.079 | 1.07 ± 0.062 | 1.02 ± 0.078 | 1 ± 0.058 | 0.898 ± 0.12 | 0.848 ± 0.073 | 0.928 ± 0.069 | 0.936 ± 0.054 | 0.834 ± 0.13 | 0.754 ± 0.093 | 0.507 ± 0.066 | 0.362 ± 0.017
VP229 BREAST | 1.13 ± 0.076 | 1.12 ± 0.15 | 1.14 ± 0.05 | 1.15 ± 0.13 | 1.25 ± 0.15 | 1.08 ± 0.12 | 1.12 ± 0.12 | 1.14 ± 0.053 | 1.1 ± 0.13 | 1.19 ± 0.16 | 1.19 ± 0.14 | 1.18 ± 0.15 | 1.07 ± 0.14 | 0.909 ± 0.18 | 0.713 ± 0.055 | 0.658 ± 0.12
YAMATO SYNOVIAL | 1.18 ± 0.13 | 1.05 ± 0.089 | 1.25 ± 0.17 | 0.532 ± 0.058 | 0.685 ± 0.065 | 0.587 ± 0.05 | 0.584 ± 0.046 | 0.604 ± 0.048 | 1.13 ± 0.13 | 1.12 ± 0.023 | 1.16 ± 0.1 | 1.08 ± 0.063 | 0.84 ± 0.022 | 0.708 ± 0.036 | 0.521 ± 0.01 | 0.482 ± 0.027
ZR751 BREAST | 1 ± 0.11 | 1.1 ± 0.14 | 0.975 ± 0.057 | 1.29 ± 0.21 | 0.715 ± 0.077 | 0.69 ± 0.088 | 0.707 ± 0.044 | 0.741 ± 0.011 | 0.962 ± 0.026 | 1.04 ± 0.088 | 0.678 ± 0.065 | 0.734 ± 0.064 | 0.407 ± 0.024 | 0.424 ± 0.027 | 0.308 ± 0.029 | 0.317 ± 0.029

— the supplement of paper PMC6045584
